Experimental data taken from patent publication US20140271734A1, “BILE ACID RECYCLING INHIBITORS FOR TREATMENT OF BARRETT'S ESOPHAGUS AND GASTROESOPHAGEAL REFLUX DISEASE” (LUMENA PHARMACEUTICALS, INC., priority 2013, published 2014).

Tests used:
[1] = Body weight of hamsters, LUM001 for 28 days; format: in vivo, golden Syrian hamsters; settings: n=10
Experimental: Male golden Syrian hamsters (126-147 gm) were obtained from Charles Rivers Laboratories and were single housed in a constant temperature environment with alternating 12-hour light and dark cycles. Hamsters were fed Teklad 7001 rodent meal chow at libitum for two weeks before the experimental studies began and switched to Teklad 7001 rodent meal chow supplemented with 0.24% cholesterol on day one of the 28-day experiment. LUM001 was dissolved in an aqueous solution of 0.2% (w/v) Tween 80 and administered Q.D. by intragastric gavage between 9 a.m. and 10 a.m. each morning using a syringe fitted with a flexible feeding tube. Blood samples were collected after 14- and 28-day treatment periods by orbital sinus and cardiac puncture, respectively. Hamsters were anesthetized but not fasted prior to blood collections. Fecal samples were collected during a 48-hour period at the end of days 14 and 28 (i.e., days 13-14 and 27-28, respectively).

serum bile acids = test: Serum bile acids, ascending multiple oral doses of LUM001 in healthy adults; format: in vivo, human; settings: 28 days
Experimental: This Phase 1 study was a randomized, double-blind, placebo-controlled study of ascending multiple oral doses of LUM001 in healthy, adult subjects. This study was conducted at a single center. There were 13 LUM001 dosing panels: 10, 20, 60, 100, and 20 mg every morning (qAM) (2) (i.e., the regimen was tested a second time in the study), 5 mg every evening (qPM), 0.5, 1, 2.5, 5, 2.5 (2), 5 (2), and 0.5 to 5 mg qAM dose titration. Most of the dosing panels included subjects treated with matching placebo. No subject participated in more than 1 dosing panel. Subjects were randomized into the study by dosing panel, and all subjects within a dosing panel received study medication at approximately the same time each day. Safety was reviewed for each panel before subsequent panels were initiated. A total of 167 subjects were treated for 28 days, 147 with LUM001 and 20 with placebo. […]
On Day 1 of the Treatment Period, subjects who qualified for enrollment were randomized in the order in which they were admitted to the research facility. […] The safety and tolerability of LUM001 were evaluated by physical examination, ascertainment of adverse signs and symptoms, and clinical laboratory studies. […]
SBA were analyzed as part of the routine clinical analysis of the serum samples collected at each time point.

fecal bile acids = test: Fecal bile acid excretion, ascending multiple oral doses of LUM001 in healthy adults; format: in vivo, human
Experimental: This Phase 1 study was a randomized, double-blind, placebo-controlled study of ascending multiple oral doses of LUM001 in healthy, adult subjects. This study was conducted at a single center. There were 13 LUM001 dosing panels: 10, 20, 60, 100, and 20 mg every morning (qAM) (2) (i.e., the regimen was tested a second time in the study), 5 mg every evening (qPM), 0.5, 1, 2.5, 5, 2.5 (2), 5 (2), and 0.5 to 5 mg qAM dose titration. Most of the dosing panels included subjects treated with matching placebo. No subject participated in more than 1 dosing panel. Subjects were randomized into the study by dosing panel, and all subjects within a dosing panel received study medication at approximately the same time each day. Safety was reviewed for each panel before subsequent panels were initiated. A total of 167 subjects were treated for 28 days, 147 with LUM001 and 20 with placebo.
During the Pretreatment Screening Period (Days −31 through −4), subjects were seen on an outpatient basis to determine study eligibility based on enrollment criteria. On Day −3, eligible subjects were admitted to the research facility during the morning. Subjects were confined to the research facility from Days −3 to 30. During the entire period of confinement to the research facility, subjects received a study diet composed of 35% of caloric intake from fat, 15% from protein, and 50% from carbohydrates. The total daily caloric intake (based on the subject's weight) was fixed and divided into 3 equicaloric equal-fat-containing meals. The fixed fat composition and caloric content of the diet was designed to reduce inter- and intra-subject variability of serum total bile acids (SBA) and FBA, lipid parameters, and fat absorption parameters.
On Day 1 of the Treatment Period, subjects who qualified for enrollment were randomized in the order in which they were admitted to the research facility. On the same day, subjects began receiving study medication. Subsequent analyses included clinical and laboratory safety assessments and profiles of PK, PD, and lipid parameters. The safety and tolerability of LUM001 were evaluated by physical examination, ascertainment of adverse signs and symptoms, and clinical laboratory studies. Blood and urine samples were obtained for measurement of LUM001 plasma, whole blood, and urine concentrations for subsequent PK analyses. Efficacy responses included measuring FBA as a surrogate marker for the inhibition of intestinal bile acid transport. For the qAM dosing panels, LUM001 or placebo was administered each day of the treatment period (28 days) immediately prior to the morning meal at approximately 08:00 and after any necessary blood work was drawn.
Fecal samples were collected for all panels except the dose-titration panel, 2.5 (2) and 5 mg (2), on Days 9 through 14 and 23 through 28 (data shown in FIG. 6; *p<0.05; **p<0.01 compared to placebo). Twenty-four hour FBA excretions were quantified by Pharmacia for Days 9 through 14 and 23 through 28. Feces were collected in a 24-hour collection container beginning at 08:00 and ending 24 hours later. This procedure was followed on Days 9 through 14 and 23 through 28, with new collection containers issued for each 24-hour period. The weight of each 24-hour fecal collection was recorded on the CRFs. Specimens were stored in 24-hour containers, frozen at approximately −80° C. prior to analysis.
An aliquot for each 24-hour fecal sample collected on Days 23 through 28 was combined, homogenized, and analyzed for bile acid species concentrations by ANAPHARM. The fecal bile acid species evaluated include chenodeoxycholic acid, cholic acid, deoxycholic acid, and lithocholic acid.

Hemoglobin A1c (HbA1c) = test: Baseline-corrected percent HbA1c in ZDF rats; format: in vivo; settings: twice daily oral gavage
[2] = test system: fecal excretion of [14C]taurocholic acid (TCA); test: Fecal excretion of [14C]taurocholic acid in hamsters, LUM002; format: in vivo, Syrian hamster; settings: oral gavage in two half doses, feces collected 24 hours, n=4 nonfasted hamsters per group
Experimental: To study the effect of LUM002 on fecal excretion of [^14C]taurocholic acid (TCA) in the Syrian hamster in vivo, [^14C]TCA was administered intraperitoneally 1 hour before dosing the test compound. Each animal was dosed with 1 μCi [^14C]TCA. LUM002 was dosed by oral gavage (5 mL/kg per administration) in either 5% (v/v) Solutol with 0.5% hydroxyethylcellulose (HEC) or 0.5% HEC alone. The first half of dose of test compound/vehicle was given 1 hour after [^14Cl]TCA injection, followed by the second half of dose 7 hours after the first dose of test compound/vehicle. Feces were collected for 24 hours after [^14Cl]TCA administration and aliquots from feces were combusted for determination of [^14Cl] excretion.
The ED200 (dose which doubles the fecal excretion of [^14Cl] label vs. control from dose response curve, including 95% Confidence interval) was calculated from a dose response curve.

CCCCC1(CCCC)CS(=O)(=O)c2ccc(N(C)C)cc2[C@@H](c2ccc(OCc3ccc(C[N+]45CCN(CC4)CC5)cc3)cc2)[C@H]1O [LUM001]
Body Weight (BW) ([1]; 5 mg/kg/day): 130 g
Body Weight (BW) ([1]; 15 mg/kg/day): 136 g
Body Weight (BW) ([1]; 50 mg/kg/day): 130 g
Serum bile acids (serum bile acids): significant reduction in serum bile acids
Mean Daily Total Fecal Bile Acids Excretion (fecal bile acids; 0.5 mg (n=16), Days 9-14): 266.8 μmole/24 hr
Mean Daily Total Fecal Bile Acids Excretion (fecal bile acids; 0.5 mg (n=16), Days 23-28): 294.9 μmole/24 hr
Mean Daily Total Fecal Bile Acids Excretion (fecal bile acids; 1.0 mg (n=8), Days 9-14): 642.7 μmole/24 hr
Mean Daily Total Fecal Bile Acids Excretion (fecal bile acids; 1.0 mg (n=8), Days 23-28): 780.3 μmole/24 hr
Mean Daily Total Fecal Bile Acids Excretion (fecal bile acids; 2.5 mg (n=8), Days 9-14): 478.0 μmole/24 hr
Mean Daily Total Fecal Bile Acids Excretion (fecal bile acids; 2.5 mg (n=8), Days 23-28): 590.7 μmole/24 hr
Mean Daily Total Fecal Bile Acids Excretion (fecal bile acids; 5 mg (n=8), Days 9-14): 1105.1 μmole/24 hr
Mean Daily Total Fecal Bile Acids Excretion (fecal bile acids; 5 mg (n=8), Days 23-28): 848.4 μmole/24 hr
Mean Daily Total Fecal Bile Acids Excretion (fecal bile acids; 5 mg qPM (n=15), Days 9-14): 496.9 μmole/24 hr
Mean Daily Total Fecal Bile Acids Excretion (fecal bile acids; 5 mg qPM (n=15), Days 23-28): 593.3 μmole/24 hr
Mean Daily Total Fecal Bile Acids Excretion (fecal bile acids; 10 mg (n=8), Days 9-14): 1237.0 μmole/24 hr
Mean Daily Total Fecal Bile Acids Excretion (fecal bile acids; 10 mg (n=8), Days 23-28): 1126.0 μmole/24 hr
Mean Daily Total Fecal Bile Acids Excretion (fecal bile acids; 20 mg (n=16), Days 9-14): 902.9 μmole/24 hr
Mean Daily Total Fecal Bile Acids Excretion (fecal bile acids; 20 mg (n=16), Days 23-28): 865.2 μmole/24 hr
Mean Daily Total Fecal Bile Acids Excretion (fecal bile acids; 60 mg (n=8), Days 9-14): 973.4 μmole/24 hr
Mean Daily Total Fecal Bile Acids Excretion (fecal bile acids; 60 mg (n=8), Days 23-28): 964.5 μmole/24 hr
Mean Daily Total Fecal Bile Acids Excretion (fecal bile acids; 100 mg (n=8), Days 9-14): 2405.7 μmole/24 hr
Mean Daily Total Fecal Bile Acids Excretion (fecal bile acids; 100 mg (n=8), Days 23-28): 1718.3 μmole/24 hr
Fecal Bile Acids (fecal bile acids; healthy adults, multiple oral doses, 28 days): significant increase in fecal bile acids

CCCC[C@]1(CC)CS(=O)(=O)c2ccc(N(C)C)cc2[C@@H](c2cccc(NC(=O)N[C@@H]3O[C@H](COS(=O)(=O)[O-])[C@@H](O)[C@H](OCc4ccccc4)[C@H]3O)c2)[C@H]1O.CCO.O.[K+] [LUM002, potassium((2R,3R,4S,5R,6R)-4-benzyloxy-6-{3-[3-((3S,4R,5R)-3-butyl-7-dimethylamino-3-ethyl-4-hydroxy-1,1-dioxo-2,3,4,5-tetrahydro-1H-benzo[b]thiepin-5-yl)-phenyl]-ureido}-3,5-dihydroxy-tetrahydro-pyran-2-ylmethyl)sulphate ethanolate, hydrate]
Baseline-corrected percent HbA1c (Hemoglobin A1c (HbA1c)): significant dose-dependent reductions
Fecal excretion of bile acids ([14C]TCA label) [2]: significantly increased fecal excretion of bile acids
